Data published in patent US6413935B1, “Induction of immune response against desired determinants” (priority 1993, dated 2002).
Where “and” joins values, the source holds several entries; their conditions need not be identical. Equal entries are not always repeated. Where two headings read alike, the source gives them in different places.

Experiments:
[1] = test system: IE^k; type: binding, mouse; conditions: Table III; read-out: Capacity to bind purified IE^k, IC50
[2] = biological target: T1, IA^b (Mus musculus, UniProt P14434+P14483); experiment: biochemical; type: binding
T1 construct: Various cell lines were used as sources of purified human and mouse class II molecules; endogenous in cells; host or cells: DB27.4
T1 sequence (P14434 24-256): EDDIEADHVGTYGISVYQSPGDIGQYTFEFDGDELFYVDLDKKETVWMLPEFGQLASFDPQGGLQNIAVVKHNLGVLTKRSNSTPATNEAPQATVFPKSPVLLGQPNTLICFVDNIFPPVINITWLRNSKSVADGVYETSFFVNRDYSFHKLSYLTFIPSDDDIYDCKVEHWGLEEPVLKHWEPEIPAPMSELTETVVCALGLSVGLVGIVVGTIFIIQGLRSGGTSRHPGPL
T1 sequence (P14483 28-265): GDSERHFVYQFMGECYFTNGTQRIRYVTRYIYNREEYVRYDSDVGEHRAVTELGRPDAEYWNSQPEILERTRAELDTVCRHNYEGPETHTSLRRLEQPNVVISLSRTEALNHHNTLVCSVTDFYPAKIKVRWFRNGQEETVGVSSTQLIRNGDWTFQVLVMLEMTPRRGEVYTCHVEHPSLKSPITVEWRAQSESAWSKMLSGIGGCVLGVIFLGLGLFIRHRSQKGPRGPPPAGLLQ

[3] = biological target: T2, IE^d (Mus musculus, UniProt P01904+P01915); experiment: biochemical; type: binding
T2 construct: Various cell lines were used as sources of purified human and mouse class II molecules; endogenous in cells; host or cells: A20
T2 sequence (P01904 26-255): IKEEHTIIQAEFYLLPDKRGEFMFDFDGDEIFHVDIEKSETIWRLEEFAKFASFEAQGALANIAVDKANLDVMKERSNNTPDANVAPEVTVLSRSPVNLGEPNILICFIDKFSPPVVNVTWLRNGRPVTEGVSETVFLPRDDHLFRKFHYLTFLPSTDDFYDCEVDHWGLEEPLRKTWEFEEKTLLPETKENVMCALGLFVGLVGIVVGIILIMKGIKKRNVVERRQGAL
T2 sequence (P01915 27-264 limits assumed): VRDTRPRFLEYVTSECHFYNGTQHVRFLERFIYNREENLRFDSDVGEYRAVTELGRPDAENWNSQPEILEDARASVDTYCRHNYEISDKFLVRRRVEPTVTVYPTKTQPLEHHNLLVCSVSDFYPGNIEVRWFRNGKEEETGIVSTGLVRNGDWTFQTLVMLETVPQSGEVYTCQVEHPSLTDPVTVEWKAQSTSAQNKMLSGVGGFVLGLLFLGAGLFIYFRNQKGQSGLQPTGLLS

[4] = biological target: T3, IA^k (Mus musculus, UniProt P01910+P06343); experiment: biochemical; type: binding; conditions: Table III; read-out: Capacity to bind purified IA^k, IC50
T3 construct: Various cell lines were used as sources of purified human and mouse class II molecules; endogenous in cells; host or cells: CH12
T3 sequence (P01910 24-256): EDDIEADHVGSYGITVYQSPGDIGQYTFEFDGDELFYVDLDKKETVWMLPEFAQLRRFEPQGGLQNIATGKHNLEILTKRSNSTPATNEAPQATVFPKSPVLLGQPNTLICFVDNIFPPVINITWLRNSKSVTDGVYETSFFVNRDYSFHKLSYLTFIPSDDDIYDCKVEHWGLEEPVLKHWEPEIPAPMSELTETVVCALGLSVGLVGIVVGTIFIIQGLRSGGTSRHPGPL
T3 sequence (P06343 28-263): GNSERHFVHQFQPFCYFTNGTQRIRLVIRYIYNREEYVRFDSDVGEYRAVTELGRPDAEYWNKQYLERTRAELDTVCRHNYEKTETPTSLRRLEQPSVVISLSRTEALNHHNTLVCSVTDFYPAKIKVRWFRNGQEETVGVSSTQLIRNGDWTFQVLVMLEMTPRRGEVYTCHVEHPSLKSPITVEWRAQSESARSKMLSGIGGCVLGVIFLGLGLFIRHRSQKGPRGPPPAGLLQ

[5] = biological target: T4, IA^d (Mus musculus, UniProt P01921+P04228); experiment: biochemical; type: binding; conditions: Table III; read-out: Capacity to bind purified IA^d, IC50
T4 construct: Various cell lines were used as sources of purified human and mouse class II molecules; endogenous in cells; host or cells: A20
T4 sequence (P04228 24-256): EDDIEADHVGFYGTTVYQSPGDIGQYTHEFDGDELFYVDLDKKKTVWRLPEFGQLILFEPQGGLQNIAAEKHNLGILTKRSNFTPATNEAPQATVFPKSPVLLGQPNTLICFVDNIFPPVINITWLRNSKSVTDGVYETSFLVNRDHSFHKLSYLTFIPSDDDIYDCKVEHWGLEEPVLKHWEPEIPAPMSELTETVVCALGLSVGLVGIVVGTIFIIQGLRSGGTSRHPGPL
T4 sequence (P01921 28-265): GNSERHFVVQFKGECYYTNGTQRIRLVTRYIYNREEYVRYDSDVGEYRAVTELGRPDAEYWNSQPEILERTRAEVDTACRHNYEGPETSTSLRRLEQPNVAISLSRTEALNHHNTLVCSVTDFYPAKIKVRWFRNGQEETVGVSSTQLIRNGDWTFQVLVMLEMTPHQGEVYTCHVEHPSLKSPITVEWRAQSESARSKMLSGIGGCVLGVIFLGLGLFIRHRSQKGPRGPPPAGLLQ

[6] = biological target: T5, IA^s (Mus musculus, UniProt P06345+P14437); experiment: biochemical; type: binding; conditions: Table III; read-out: Capacity to bind purified IA^s, IC50
T5 construct: Various cell lines were used as sources of purified human and mouse class II molecules; endogenous in cells; host or cells: LS102.9
T5 sequence (P14437 1-233): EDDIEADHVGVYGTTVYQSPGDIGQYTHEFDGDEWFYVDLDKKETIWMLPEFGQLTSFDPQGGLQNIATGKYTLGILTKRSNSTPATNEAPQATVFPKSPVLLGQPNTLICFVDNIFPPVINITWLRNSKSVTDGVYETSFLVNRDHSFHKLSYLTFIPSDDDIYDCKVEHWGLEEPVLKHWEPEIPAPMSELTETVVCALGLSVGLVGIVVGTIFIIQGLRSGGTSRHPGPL
T5 sequence (P06345 28-263): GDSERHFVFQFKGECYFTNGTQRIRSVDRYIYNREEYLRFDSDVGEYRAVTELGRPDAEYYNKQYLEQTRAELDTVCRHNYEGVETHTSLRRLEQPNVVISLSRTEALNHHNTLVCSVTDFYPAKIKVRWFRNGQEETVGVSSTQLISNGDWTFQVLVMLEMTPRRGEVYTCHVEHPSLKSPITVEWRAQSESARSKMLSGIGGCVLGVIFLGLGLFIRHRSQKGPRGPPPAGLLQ

[7] = biological target: DR2w2a (Homo sapiens, UniProt P01903+Q30154); experiment: biochemical; conditions: PADRE Class II Binding Affinities DR2w282, Table IX
Sequence of DR2w2a (P01903 26-254): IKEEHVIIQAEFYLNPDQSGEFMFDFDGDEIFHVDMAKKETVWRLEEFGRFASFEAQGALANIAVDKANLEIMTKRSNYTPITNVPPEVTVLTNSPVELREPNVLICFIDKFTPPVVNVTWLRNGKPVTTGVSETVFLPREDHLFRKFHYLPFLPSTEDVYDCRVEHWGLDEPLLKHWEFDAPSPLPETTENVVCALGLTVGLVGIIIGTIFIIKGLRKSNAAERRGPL
Sequence of DR2w2a (Q30154 30-266): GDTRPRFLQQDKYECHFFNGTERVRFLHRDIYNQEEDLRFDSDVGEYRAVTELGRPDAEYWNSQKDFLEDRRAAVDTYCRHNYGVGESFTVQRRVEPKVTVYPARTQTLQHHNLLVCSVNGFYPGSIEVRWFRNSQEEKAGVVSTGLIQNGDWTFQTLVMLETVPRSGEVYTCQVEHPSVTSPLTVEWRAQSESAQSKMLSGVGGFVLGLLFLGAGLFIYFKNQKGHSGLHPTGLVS

[8] = test system: DR7; conditions: read-out: PADRE Class II Binding Affinities DR7; Table IX; listed as 965.012
[9] = biological target: DR3 (Homo sapiens, UniProt P01903+P01911, A100K/A102G/A103R/A169T/F55Y/I96L/K41T/L162R/M171V/P40S/Q125H/Q178H/Q39Y/R42S/S66N/T106N/T262R/W38E/Y61H); experiment: biochemical; conditions: PADRE Class II Binding Affinities DR3, Table IX
[10] = test system: DR5; conditions: read-out: PADRE Class II Binding Affinities DR5, Table IX
[11] = biological target: DR1 (Homo sapiens, UniProt P01903+P01911, A100R/D57E/F55L/F60I/F76Y/I96L/L162R/M171V/P40L/Q125E/R42F/V115G/Y59C); experiment: biochemical
[12] = test system: human PBMC T cell lines; type: cell-based
[13] = biological target: DR4w4 (Homo sapiens, UniProt P01903+P01911, A100K/A169T/F76Y/I96L/K127E/L162R/M171V/N62H/P40V/Q125Y/R42H/S133A/S149N/S66Y/V115G/V209L/W38E); experiment: biochemical; conditions: PADRE Class II Binding Affinities DR4w4
[14] = test system: C57BL/6J (H-2^b+) mice; conditions: mouse, in vivo, sc
[15] = Table III, read-out: Capacity to bind purified IE^d, IC50
[16] = PADRE Class II Binding Affinities DR1, Table IX

## CC[C@H](C)[C@H](NC(=O)[C@@H]1CCCN1C(=O)[C@H](C)NC(=O)[C@H](CC(N)=O)NC(=O)[C@@H]1CCCN1C(=O)[C@@H]1CCCN1C(=O)[C@H](CCCNC(=N)N)NC(=O)[C@H](Cc1ccc(O)cc1)NC(=O)[C@H](C)NC(=O)[C@@H]1CCCN1C(=O)[C@@H]1CCCN1C(=O)[C@@H](N)[C@@H](C)O)C(=O)N[C@@H](CC(C)C)C(=O)O [HBVc 128-140, reference compound]
[1]
  IC50: > 10000 nM

## CC[C@H](C)[C@H](NC(=O)CNC(=O)[C@H](Cc1ccc(O)cc1)NC(=O)[C@H](CC(=O)O)NC(=O)[C@@H](NC(=O)[C@H](CO)NC(=O)CNC(=O)[C@H](CC(=O)O)NC(=O)[C@@H](NC(=O)[C@@H](N)CC(N)=O)[C@@H](C)O)[C@@H](C)O)C(=O)N[C@@H](CC(C)C)C(=O)N[C@@H](CCC(N)=O)C(=O)N[C@H](C(=O)N[C@@H](CC(N)=O)C(=O)N[C@@H](CO)C(=O)N[C@@H](CCCNC(=N)N)C(=O)O)[C@@H](C)CC [HEL46-61]
[2]
  IC50: 7000 nM
[3]; [15]
  IC50: 8500 nM
[4]
  IC50: 20 nM
[5]
  IC50: 1220 nM
[6]
  IC50: > 10000 nM

## CC[C@H](C)[C@H](NC(=O)[C@H](C)NC(=O)[C@H](CCCCN)NC(=O)[C@H](CC(C)C)NC(=O)[C@H](CCCNC(=N)N)NC(=O)[C@H](CCCNC(=N)N)NC(=O)[C@H](C)NC(=O)[C@H](CC(=O)O)NC(=O)[C@H](CCC(=O)O)NC(=O)[C@H](CC(C)C)NC(=O)[C@@H](N)Cc1ccc(O)cc1)C(=O)N[C@@H](Cc1ccc(O)cc1)C(=O)N[C@@H](CCC(=O)O)C(=O)N[C@@H](CCCCN)C(=O)N[C@@H](CCCCN)C(=O)N[C@@H](CCCCN)C(=O)O [Iambda rep 12-26]
[2]
  IC50: > 10000 nM
[3]; Allele IEd, read-out: Avg. IC50 of assay standard
  IC50: 170 nM
[4]
  IC50: > 10000 nM
[5]
  IC50: 1100 nM
[6]
  IC50: > 10000 nM

## CC[C@H](C)[C@H](N)C(=O)N[C@@H](CO)C(=O)N[C@@H](CCC(N)=O)C(=O)N[C@@H](C)C(=O)N[C@H](C(=O)N[C@@H](Cc1c[nH]cn1)C(=O)N[C@@H](C)C(=O)N[C@@H](C)C(=O)N[C@@H](Cc1c[nH]cn1)C(=O)N[C@@H](C)C(=O)N[C@@H](CCC(=O)O)C(=O)N[C@H](C(=O)N[C@@H](CC(N)=O)C(=O)N[C@@H](CCC(=O)O)C(=O)O)[C@@H](C)CC)C(C)C [Ova 323-336, ISQAVHAAHAEINE]
[3]; [15]
  IC50: > 10000 nM
[4]
  IC50: 1000 nM
[6]
  IC50: 1040 nM

## CC(C)C[C@H](NC(=O)[C@H](Cc1c[nH]c2ccccc12)NC(=O)[C@H](CCCCN)NC(=O)CNC(=O)[C@H](CC(C)C)NC(=O)[C@H](CO)NC(=O)[C@@H](N)Cc1c[nH]cn1)C(=O)NCC(=O)N[C@@H](Cc1c[nH]cn1)C(=O)N1CCC[C@H]1C(=O)N[C@@H](CC(=O)O)C(=O)N[C@@H](CCCCN)C(=O)N[C@@H](Cc1ccccc1)C(=O)O [PLP 139-151]
[2]
  IC50: > 3100 nM
[3]; [15]
  IC50: > 10000 nM
[4]
  IC50: > 10000 nM
[5]
  IC50: > 10000 nM
[6]
  IC50: 86 nM

## CC(C)C[C@H](NC(=O)[C@@H](NC(=O)[C@H](CC(N)=O)NC(=O)[C@H](C)NC(=O)[C@H](CCCCN)NC(=O)[C@@H](NC(=O)[C@H](CC1CCCCC1)NC(=O)[C@H](CCCCN)NC(=O)[C@@H](C)N)C(C)C)[C@@H](C)O)C(=O)N[C@@H](CCCCN)C(=O)N[C@@H](C)C(=O)N[C@@H](C)C(=O)N[C@H](C)C(N)=O [Peptide 965.011]
[7]
  IC50: 12.5 nM and 10.5 nM
[8]
  IC50: 781 nM
[9]
  IC50: 592 nM and 4590 nM
[10]
  IC50: 11.8 nM
[10]; listed as 965.012
  IC50: 2.2 nM
[11]; [16]
  IC50: 1.5 nM and 1.3 nM

## CC(C)C[C@H](NC(=O)[C@@H](NC(=O)[C@H](Cc1ccc(O)cc1)NC(=O)[C@H](C)NC(=O)[C@H](C)NC(=O)[C@@H](NC(=O)[C@H](CC1CCCCC1)NC(=O)[C@H](CCCCN)NC(=O)[C@@H](C)N)C(C)C)[C@@H](C)O)C(=O)N[C@@H](CCCCN)C(=O)N[C@@H](C)C(=O)N[C@@H](C)C(=O)N[C@H](C)C(N)=O [Peptide 965.091]
[7]
  IC50: 7.4 nM and 6.4 nM
[9]
  IC50: 450 nM and 3210 nM
[12]
  Donors with significant (>10,000 cpm) T cell response / donors tested, second stimulation: 4/5
  Donors with significant (>10,000 cpm) T cell response / donors tested, third stimulation: 4/5
[10]; listed as 965.092
  IC50: 6.5 nM
[11]; PADRE Class II Binding Affinities DR1
  IC50: 0.8 nM
[11]; [16]
  IC50: 0.6 nM
[13]
  IC50: 1 nM

## CC[C@H](C)[C@H](NC(=O)CNC(=O)[C@@H](NC(=O)[C@H](Cc1ccccc1)NC(=O)[C@H](CCCCN)NC(=O)[C@H](CO)NC(=O)[C@H](CC(N)=O)NC(=O)[C@H](C)NC(=O)[C@H](CCCCN)NC(=O)[C@@H](NC(=O)[C@H](Cc1ccc(O)cc1)NC(=O)[C@@H](N)CCC(N)=O)[C@@H](C)CC)[C@@H](C)CC)C(=O)N[C@H](C(=O)N[C@@H](CCC(=O)O)C(=O)O)[C@@H](C)O [Tet Tox 830-843, reference compound]
[2]
  Capacity to bind purified IA^b, IC50: did not bind IA^b appreciably
[12]
  Donors with significant (>10,000 cpm) T cell response / donors tested, second stimulation: 3/12
  Donors with significant (>10,000 cpm) T cell response / donors tested, third stimulation: 7/12
[14]
  T cell proliferative response of primed lymph node cells: unable to generate a specific T cell proliferative response
